Laboratory results taken from ChEMBL document CHEMBL3632570, “Structure-Guided Design of Novel l-Cysteine Derivatives as Potent KSP Inhibitors” (ACS Med Chem Lett, 2015).

Experiments:
HCT-116 [1] = experiment: Antitumor activity against human HCT116 cells xenografted in iv dosed athymic nude BALB/cAJcL mouse assessed as inhibition of tumor growth drug administered on days 1,3,5,8,10 and 12 measured on day 15; type: functional, organism-based
HCT-116 [2] = experiment: Antitumor activity against human HCT116 cells xenografted in athymic nude BALB/cAJcL mouse assessed as inhibition of tumor growth at 75 mg/kg, iv administered on days 1,3,5,8,10 and 12 measured on day 15; type: functional

Compound: N[C@@H](CSC1(c2ccc(C(F)(F)F)cc2)c2ccccc2CCc2ccccc21)C(=O)O
- TGI (HCT-116 [1]): Dose-dependent effect
- T/C (HCT-116 [2]): 9%
